Data published in publication PMC6627197, “Development of a High Throughput Screen for the Identification of Inhibitors of Peptidoglycan O-Acetyltransferases, New Potential Antibacterial Targets” (Antibiotics, 2019).
Values after ≈ are worked out from the molar mass of the structure shown. “Also recorded” adds a separate entry of the source. Read-outs that look alike come from different tables or passages of the source.

Columns and labels:
NgPatB [1] = biological target: T1, NgPatB (Neisseria gonorrhoeae, UniProt Q5F966); assay: NgPatB esterase inhibition, fluorometric assay with 4MU-Ac as substrate (HTS, dose response, Ki); assay type: biochemical; conditions: for activity at 10 µM: pH 7, read-out: NgPatB 4MU-Ac 1° Screen (% RA); for Mode of inhibition of NgPatB: 4MU-Ac as substrate, double reciprocal plot
Procedure: Determinations of Ki and mode of inhibition of NgPatBΔ100 were conducted using 4MU-Ac as a substrate. […] Initial velocities of substrate hydrolysis were obtained by fluorescence emission at 420 nm (390 nm excitation).
A large scale HTS was conducted at the SPARC BioCentre Drug Discovery Facility (The Hospital for Sick Children, Toronto, Canada) to identify additional inhibitors of PatBΔ100 acetylesterase activity. A total of 68,928 compounds were tested in singlicate, including 14,400 from the Maybridge HitFinder Collection, 50,000 from the ChemBridge DIVERset Collection, and 4,480 compounds representing plates 1–15 of the GlycoNET ChemBridge Collection maintained at the facility. The 4MU-Ac served as the substrate in the 384-well microtiter plate (NUNC 262260) fluorescent assay described above. The assay was optimized for use with this facility by altering enzyme and substrate concentrations, in addition to incubation times and reaction volume. As for the pilot screen, a Z’ for the assay was determined using Equation (1). […] This was followed by dispensing final concentrations of 20 µM compounds from the Maybridge HitFinder and ChemBridge DIVERset Collections or 10 µM compounds from the GlycoNET ChemBridge Collection using an Echo® 550 acoustic dispenser (Labcyte).

SaOatA [2] = biological target: T2, SaOatA (Staphylococcus aureus, UniProt Q2FV54); assay: biochemical; conditions: for activity at 10 µM: pH 7, read-out: SaOatA 4MU-Ac 1° Screen (% RA)
T2 sequence (Q2FV54 435-603): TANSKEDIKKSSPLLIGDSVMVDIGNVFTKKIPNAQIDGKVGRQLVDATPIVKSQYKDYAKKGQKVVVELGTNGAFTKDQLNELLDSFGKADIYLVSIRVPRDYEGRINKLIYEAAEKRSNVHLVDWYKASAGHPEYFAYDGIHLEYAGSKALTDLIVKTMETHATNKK

NgPatB [3] = biological target: T1, NgPatB; assay type: biochemical; conditions: 3 µM enzyme, pH 7.0
SaOatA [4] = biological target: SaOatA (Staphylococcus aureus, UniProt Q2FV54); assay type: biochemical; conditions: variant SaOatA445 (SaOatAΔ445), 5 µM enzyme, pH 6.5
SaOatA [5] = biological target: T2, SaOatA; assay: SaOatA esterase inhibition, chromogenic assay with pNP-Ac as substrate; assay type: biochemical
Procedure: (§1) With fluorometric assays, fluorescence quenching by compounds in the libraries could lead to their false identification as inhibitors. Thus, to confirm their inhibitory activity, we also tested esculin, esculetin, and scopoletin as inhibitors of PatBΔ69 and SaOatAΔ435 esterase activity using the chromogenic pNP-Ac as substrate. […] .
(§2) Hits which were seen to affect NgPatBΔ100 esterase activity in a dose dependent manner were also tested as inhibitors of the enzyme (0.75 µM, final concentration) using 2 mM pNP-Ac as substrate to identify false positives, due to fluorescence quenching under similar assay conditions. Similarly, hits which were seen to affect SaOatAΔ445 esterase activity in a dose dependent manner were also tested as inhibitors of the enzyme at 1.5 µM (final concentration) using 1.1 mM pNP-Ac.

SaOatA [6] = biological target: T2, SaOatA; conditions: cited from earlier work
NgPatB [7] = biological target: T1, NgPatB; assay: NgPatB esterase inhibition, chromogenic assay with pNP-Ac as substrate; assay type: biochemical
Procedure: as §1, §2

[8] = Solubility limit in growth assays
S. aureus ATCC 6538 = assay: Microtiter plate growth / MIC assay, S. aureus; conditions: Staphylococcus aureus, ATCC6538, read-out: Growth of S. aureus ATCC 6538, % of control growth level reached
E. coli BL21 = assay: Microtiter plate growth / MIC assay, E. coli (negative control organism); conditions: for Effect on growth of E. coli: within solubility limits
N. gonorrhoeae FA1090 = assay: Microtiter plate growth / MIC assay, N. gonorrhoeae
SaOatA [9] = biological target: T2, SaOatA; conditions: 10 µM
[10] = read-out: SaOatA 4MU-Ac IC50, 4MU-Ac as substrate, values marked 2 in Table 1
[11] = listed as benzothiazolyl-pyrazolo-pyridine

T1 sequence (Q5F966 entry or part of it): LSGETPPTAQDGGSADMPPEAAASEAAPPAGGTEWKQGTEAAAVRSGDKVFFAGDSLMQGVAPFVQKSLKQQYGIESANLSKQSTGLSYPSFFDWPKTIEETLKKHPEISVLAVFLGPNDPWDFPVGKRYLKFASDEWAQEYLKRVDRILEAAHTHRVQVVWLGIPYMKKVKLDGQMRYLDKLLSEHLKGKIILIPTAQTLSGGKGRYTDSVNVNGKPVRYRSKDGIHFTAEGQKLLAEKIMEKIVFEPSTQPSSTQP

Row | SMILES | activity at 10 µM (NgPatB [1]) | activity at 10 µM (SaOatA [2]) | IC50 (SaOatA [5]) | IC50 (NgPatB [1]) | IC50 (SaOatA [6]; [10]) | IC50 (NgPatB [7]) | other results
1 | COc1cc2oc(=O)ccc2cc1O [Isoscopoletin] | 53.5% | 115% |  |  |  |  | 
2 | CC(=O)Oc1ccc([N+](=O)[O-])cc1 [pNP-Ac, p-nitrophenyl acetate] |  |  |  |  |  |  | Km (NgPatB [3]; variant NgPatB69 (NgPatBΔ69)): 1770 µM; kcat (NgPatB [3]; variant NgPatB69 (NgPatBΔ69)): 0.14 sec‐1; Km (NgPatB [3]; variant NgPatB100 (NgPatBΔ100)): 2060 µM; kcat (NgPatB [3]; variant NgPatB100 (NgPatBΔ100)): 0.44 sec‐1; Km (SaOatA [4]): 1140 µM; kcat (SaOatA [4]): 0.047 sec‐1
3 | O=c1ccc2ccc(O)cc2o1 [Umbelliferone, 7-hydroxycoumarin] |  |  | > 3000 µM | 530 ± 70 µM | 98.5 ± 1.1 µM | > 3000 µM | 
4 | Cc1cc(=O)oc2cc(O)ccc12 [Hymercrome, 7-hydroxy-4-methyl-coumarin, reference compound] | 42.9% | 67.8% | > 3000 µM | 615 ± 10 µM |  | > 3000 µM | IC50 (SaOatA [2]): > 3000 µM
5 | COc1cc2ccc(=O)oc2cc1O [Scopoletin] | 30% | 21.4% | 1170 ± 100 µM | 47.9 ± 4 µM | 103 ± 1.1 µM | 792 ± 7 µM | solubility [8]: 480 µg/mL (≈ 2500 µM)
6 | O=c1ccc2cc(O)c(O)cc2o1 [Esculetin] | 55.7% | 71% | 600 ± 140 µM | 53.1 ± 1 µM | 106 ± 1.2 µM | 853 ± 79 µM | activity at 512 µg/mL (S. aureus ATCC 6538): 10%; Ki (NgPatB [1]): 86.7 ± 4.7 µM; Mode of inhibition of NgPatB (NgPatB [1]): competitive inhibitor; MIC (E. coli BL21; Escherichia coli, BL21, read-out: MIC, E. coli BL21): 512 µg/mL (≈ 2870 µM); activity at 512 µg/mL (N. gonorrhoeae FA1090; Neisseria gonorrhoeae, FA1090, read-out: Growth of N. gonorrhoeae FA1090, % of control growth level reached): 25%
7 | Cc1cc(=O)oc2cc(O)c(O)cc12 [4-Me-esculetin] | 92% | 98.3% |  |  |  |  | 
8 | CCCCn1c(C)c2c(=O)n(-c3nc4ccccc4s3)[nH]c2cc1=O [Compound 89224] | 78.8% | 99.8% |  | 22.1 ± 1.2 µM |  |  | Ki (NgPatB [1]): 126 ± 19 µM; Mode of inhibition of NgPatB (NgPatB [1]): mixed/non-competitive inhibitor; Mode of inhibition of NgPatB (NgPatB [1]; [11]): non-competitive inhibitor; Effect on growth of E. coli (E. coli BL21): did not affect the growth; also recorded: not affected; Effect on growth of E. coli (E. coli BL21; [11]): unaffected; solubility [8]: ~177 µg/mL (≈ 499 µM); Reduction in growth of N. gonorrhoeae (N. gonorrhoeae FA1090; 177 µg/mL, OD 600 nm vs control lacking compound): 90%
9 | O=c1ccc2ccccc2o1 [Coumarin, 1,2-benzopyrone] | 82.5% | 106% |  |  |  |  | 
10 | O=C1c2ccccc2C(=O)c2c(O)c(O)cc(O)c21 [purpurin, 1,2,4-trihydroxy-anthraquinone, reference compound] |  |  |  |  |  |  | Identified in pilot HTS as inhibitor of NgPatB (NgPatB [1]; pilot HTS, 10 µM): not identified; IC50 (SaOatA [6]; read-out: IC50 for SaOatA, earlier preliminary characterization): ~1100 µM; Identified in pilot HTS as inhibitor of SaOatA (SaOatA [9]): not identified
11 | O=c1ccc2cc(O[C@@H]3O[C@H](CO)[C@@H](O)[C@H](O)[C@H]3O)c(O)cc2o1 [Esculin] |  |  | 1350 ± 150 µM | 49.7 ± 3 µM | 75.8 ± 1 µM | 923 ± 9 µM | remaining activity at 10 µM (NgPatB [1]; read-out: NgPatB 4MU-Ac 1° Screen (% RA)): 38.4%; remaining activity at 10 µM (SaOatA [2]; read-out: SaOatA 4MU-Ac 1° Screen (% RA)): 47.8%; solubility [8]: 2050 µg/mL (≈ 6020 µM)
